# Measured values taken from patent publication US20100029636A1, “Lck inhibitors” (priority 2006, published 2010).
# Target: Lck (Homo sapiens, UniProt P06239)
# Assay: Biochemical Lck kinase assay (TR-FRET, LANCE)
# Settings: not given
# Sequence of Lck (P06239 whole entry, species assumed): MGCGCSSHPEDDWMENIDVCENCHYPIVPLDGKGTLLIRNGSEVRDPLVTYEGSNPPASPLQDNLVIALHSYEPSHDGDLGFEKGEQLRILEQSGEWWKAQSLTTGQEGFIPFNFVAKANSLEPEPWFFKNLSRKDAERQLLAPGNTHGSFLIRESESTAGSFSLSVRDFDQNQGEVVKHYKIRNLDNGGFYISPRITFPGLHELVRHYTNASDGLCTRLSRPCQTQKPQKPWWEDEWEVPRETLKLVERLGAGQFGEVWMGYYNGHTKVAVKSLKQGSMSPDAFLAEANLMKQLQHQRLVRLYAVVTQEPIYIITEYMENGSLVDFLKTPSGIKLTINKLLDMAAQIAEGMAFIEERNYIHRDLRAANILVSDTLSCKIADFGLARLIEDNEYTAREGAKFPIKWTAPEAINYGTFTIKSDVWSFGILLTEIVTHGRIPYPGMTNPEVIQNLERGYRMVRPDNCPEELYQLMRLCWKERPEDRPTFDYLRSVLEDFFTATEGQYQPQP
row,Compound,IC50 [nM]
1,"CC(C)COC(=O)Nc1ccc(-c2cnc3c(-c4ccc(N5CCN(C)CC5)cc4)cnn3c2N)cc1 [Example 10, (4-{7-Amino-3-[4-(4-methyl-piperazin-1-yl)-phenyl]-pyrazolo[1,5-a]pyrimidin-6-yl}-phenyl)-carbamic acid isobutyl ester]",10
2,Cc1cccc(OC(=O)Nc2ccc(-c3cnc4c(-c5cccc(N6CCN(C)CC6)c5)cnn4c3N)cc2)c1C [Example 65],25
3,CCc1ccc(OC(=O)Nc2ccc(-c3cnc4c(-c5cccc(N6CCN(C)CC6)c5)cnn4c3N)cc2)cc1 [Example 77],25
4,Cc1ccc(NC(=O)Nc2ccc(-c3cnc4c(-c5cccc(N6CCN(C)CC6)c5)cnn4c3N)cc2)cc1 [Example 126],15
5,Cc1ccc([C@H](C)NC(=O)Nc2ccc(-c3cnc4c(-c5cccc(N6CCN(C)CC6)c5)cnn4c3N)cc2)cc1 [Example 172],34

# Test system: blood IL-2 levels induced by SEB
# Assay: In vivo model: mouse SEB/IL-2
# Set-up: species or system BALB/c mice
# Settings: 100 mg/kg po, serum IL-2 two hours after SEB
# Description: The compound to be tested is administered to BALB/c mice followed e.g. 1 h later, by an intravenous administration of 3 µg per mouse of SEB to induce a rise in blood IL-2 levels. Two hours after the administration of SEB, mice are bled, and levels of IL-2 are measured in the serum using standard methods. Under control conditions (vehicle only) IL-2 concentrations measured are mostly in the range of 2000 to 8000 pg/ml.
row,Compound,inhibits the secretion of IL-2 [%]
1,"CC(C)COC(=O)Nc1ccc(-c2cnc3c(-c4ccc(N5CCN(C)CC5)cc4)cnn3c2N)cc1 [Example 10, (4-{7-Amino-3-[4-(4-methyl-piperazin-1-yl)-phenyl]-pyrazolo[1,5-a]pyrimidin-6-yl}-phenyl)-carbamic acid isobutyl ester]",59
